Data taken from ChEMBL document CHEMBL4052645, “Discovery of potent and efficacious pyrrolopyridazines as dual JAK1/3 inhibitors” (Bioorg Med Chem Lett, 2017).

What was measured:
[1] = biological target: Tyrosine-protein kinase Fes/Fps (Homo sapiens) (UniProt P07332); test: Inhibition of wild-type human partial length FES (I527 to R822 residues) expressed in bacterial expression system assessed as residual activity at 50 nM by Kinomescan method relative to control
[2] = biological target: Serine/threonine-protein kinase tousled-like 2 (Homo sapiens) (UniProt Q86UE8); test: Inhibition of wild-type human partial length TLK2 (E424 to N749 residues) expressed in bacterial expression system assessed as residual activity at 50 nM by Kinomescan method relative to control
[3] = biological target: Serine/threonine-protein kinase SIK1 (Homo sapiens) (UniProt P57059); test: Inhibition of wild-type human partial length SIK (M1 to Y304 residues) expressed in bacterial expression system assessed as residual activity at 50 nM by Kinomescan method relative to control
[4] = biological target: Macrophage-stimulating protein receptor (Homo sapiens) (UniProt Q04912); test: Inhibition of wild-type human partial length RON (I1057 to L1363 residues) expressed in bacterial expression system assessed as residual activity at 50 nM by Kinomescan method relative to control
[5] = biological target: Mitogen-activated protein kinase kinase kinase 4 (Homo sapiens) (UniProt Q9Y6R4); test: Inhibition of wild-type human partial length MAP3K4 ([…] residues) expressed in mammalian expression system assessed as residual activity at 50 nM by Kinomescan method relative to control
[6] = biological target: cGMP-dependent protein kinase 2 (Homo sapiens) (UniProt Q13237); test: Inhibition of wild-type human partial length PKG2 (S422 to F762 residues) expressed in mammalian expression system assessed as residual activity at 50 nM by Kinomescan method relative to control
Chain of cGMP-dependent protein kinase 2 (Homo sapiens) (Q13237 whole entry, the tested form may be a part): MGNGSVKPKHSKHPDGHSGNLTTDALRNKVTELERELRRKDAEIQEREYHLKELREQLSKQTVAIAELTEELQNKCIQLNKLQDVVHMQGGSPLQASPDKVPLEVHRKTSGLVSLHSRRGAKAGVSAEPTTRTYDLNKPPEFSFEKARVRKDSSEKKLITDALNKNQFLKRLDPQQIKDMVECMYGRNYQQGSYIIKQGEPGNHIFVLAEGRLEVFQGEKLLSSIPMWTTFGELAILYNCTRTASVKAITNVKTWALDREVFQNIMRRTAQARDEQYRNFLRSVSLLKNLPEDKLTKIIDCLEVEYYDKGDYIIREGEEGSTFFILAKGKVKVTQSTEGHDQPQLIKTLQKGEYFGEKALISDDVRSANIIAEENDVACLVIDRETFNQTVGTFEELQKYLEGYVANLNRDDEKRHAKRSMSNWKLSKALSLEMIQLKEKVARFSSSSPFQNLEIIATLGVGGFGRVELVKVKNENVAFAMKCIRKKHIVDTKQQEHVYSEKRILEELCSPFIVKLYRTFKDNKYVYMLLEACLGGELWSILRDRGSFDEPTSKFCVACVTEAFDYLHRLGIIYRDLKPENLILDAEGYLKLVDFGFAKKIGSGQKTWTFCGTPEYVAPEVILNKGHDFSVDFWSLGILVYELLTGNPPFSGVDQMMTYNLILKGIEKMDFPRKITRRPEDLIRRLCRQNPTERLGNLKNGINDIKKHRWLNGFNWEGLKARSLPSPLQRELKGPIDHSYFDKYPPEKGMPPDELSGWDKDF

[7] = biological target: MAP kinase-interacting serine/threonine-protein kinase 1 (Homo sapiens) (UniProt Q9BUB5); test: Inhibition of wild-type human full length MNK1 (M1 to L424 residues) expressed in mammalian expression system assessed as residual activity at 50 nM by Kinomescan method relative to control
Chain of MAP kinase-interacting serine/threonine-protein kinase 1 (Homo sapiens) (Q9BUB5 whole entry, looked up, the tested form may be a part): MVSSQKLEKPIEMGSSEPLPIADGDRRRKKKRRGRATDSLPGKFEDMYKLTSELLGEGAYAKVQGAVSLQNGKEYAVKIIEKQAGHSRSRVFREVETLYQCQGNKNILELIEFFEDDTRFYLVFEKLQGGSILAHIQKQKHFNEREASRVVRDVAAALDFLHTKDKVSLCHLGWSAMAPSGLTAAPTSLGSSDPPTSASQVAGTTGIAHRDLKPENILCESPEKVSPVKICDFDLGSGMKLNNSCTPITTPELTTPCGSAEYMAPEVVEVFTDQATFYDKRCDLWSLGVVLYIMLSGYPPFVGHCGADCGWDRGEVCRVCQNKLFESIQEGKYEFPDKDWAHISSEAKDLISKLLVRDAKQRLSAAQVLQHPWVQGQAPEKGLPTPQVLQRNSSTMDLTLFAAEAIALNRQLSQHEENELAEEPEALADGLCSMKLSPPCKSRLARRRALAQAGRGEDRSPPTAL

[8] = biological target: MAP kinase-interacting serine/threonine-protein kinase 2 (Homo sapiens) (UniProt Q9HBH9); test: Inhibition of wild-type human partial length MNK2 (G63 to S388 residues) expressed in mammalian expression system assessed as residual activity at 50 nM by Kinomescan method relative to control
Chain of MAP kinase-interacting serine/threonine-protein kinase 2 (Homo sapiens) (Q9HBH9 whole entry, looked up, the tested form may be a part): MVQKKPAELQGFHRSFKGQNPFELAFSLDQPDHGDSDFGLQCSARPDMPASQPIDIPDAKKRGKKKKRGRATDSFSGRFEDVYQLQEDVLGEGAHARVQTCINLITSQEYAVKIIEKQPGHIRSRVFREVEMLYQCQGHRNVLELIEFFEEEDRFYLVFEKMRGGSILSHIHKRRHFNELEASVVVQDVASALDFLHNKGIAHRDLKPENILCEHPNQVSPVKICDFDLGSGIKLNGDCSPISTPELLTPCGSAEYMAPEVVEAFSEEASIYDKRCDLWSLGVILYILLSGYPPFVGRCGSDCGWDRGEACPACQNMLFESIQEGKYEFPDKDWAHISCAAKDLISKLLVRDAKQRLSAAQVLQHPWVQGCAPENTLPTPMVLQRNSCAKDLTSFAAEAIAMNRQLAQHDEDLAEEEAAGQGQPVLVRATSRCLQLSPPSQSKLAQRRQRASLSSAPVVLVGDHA

[9] = biological target: Proto-oncogene tyrosine-protein kinase ROS (Homo sapiens) (UniProt P08922); test: Inhibition of wild-type human partial length ROS (A1921 to N2240 residues) expressed in bacterial expression system assessed as residual activity at 50 nM by Kinomescan method relative to control
[10] = biological target: Serine/threonine-protein kinase 32A (Homo sapiens) (UniProt Q8WU08); test: Inhibition of wild-type human full length STK32A (M1 to L396 residues) expressed in mammalian expression system assessed as residual activity at 50 nM by Kinomescan method relative to control
[11] = biological target: ALK tyrosine kinase receptor (Homo sapiens) (UniProt Q9UM73); test: Inhibition of wild-type human partial length ALK (I1088 to E1409 residues) expressed in mammalian expression system assessed as residual activity at 50 nM by Kinomescan method relative to control
[12] = biological target: Protein kinase C delta type (Homo sapiens) (UniProt Q05655); test: Inhibition of human PKCD (Q328 to D676 residues) expressed in bacterial expression system assessed as residual activity at 50 nM by KINOMEscan assay relative to control
[13] = biological target: Tyrosine-protein kinase receptor UFO (Homo sapiens) (UniProt P30530); test: Inhibition of wild-type human partial length AXL (R497 to Y821 residues) expressed in bacterial expression system assessed as residual activity at 50 nM by Kinomescan method relative to control
[14] = biological target: Myosin-IIIb (Homo sapiens) (UniProt Q8WXR4); test: Inhibition of wild-type human partial length MYO3B (M1 to D357 residues) expressed in bacterial expression system assessed as residual activity at 50 nM by Kinomescan method relative to control
[15] = biological target: MAP kinase-activated protein kinase 2 (Homo sapiens) (UniProt P49137); test: Inhibition of wild-type human partial length MAPKAPK2 (V48 to D345 residues) expressed in bacterial expression system assessed as residual activity at 50 nM by Kinomescan method relative to control
Chain of MAP kinase-activated protein kinase 2 (Homo sapiens) (P49137 whole entry, looked up, the tested form may be a part): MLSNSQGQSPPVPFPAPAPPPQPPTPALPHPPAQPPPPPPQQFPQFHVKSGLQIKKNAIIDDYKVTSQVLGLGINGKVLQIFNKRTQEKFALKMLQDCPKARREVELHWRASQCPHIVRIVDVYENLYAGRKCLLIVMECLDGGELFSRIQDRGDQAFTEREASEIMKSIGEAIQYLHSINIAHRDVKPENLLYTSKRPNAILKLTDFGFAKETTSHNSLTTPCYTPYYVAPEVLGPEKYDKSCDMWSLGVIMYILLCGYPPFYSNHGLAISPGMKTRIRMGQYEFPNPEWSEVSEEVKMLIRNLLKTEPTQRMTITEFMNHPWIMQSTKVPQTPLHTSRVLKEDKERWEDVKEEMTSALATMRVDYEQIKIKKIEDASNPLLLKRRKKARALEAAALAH

[16] = biological target: RAC-beta serine/threonine-protein kinase (Homo sapiens) (UniProt P31751); test: Inhibition of wild-type human partial length AKT2 expressed in bacterial expression system assessed as residual activity at 50 nM by Kinomescan method relative to control
[17] = biological target: Non-receptor tyrosine-protein kinase TYK2 (Homo sapiens, UniProt P29597); test: Inhibition of His-tagged TYK2 (unknown origin) after 3 hrs by Caliper assay
Chain of Non-receptor tyrosine-protein kinase TYK2 (P29597 whole entry, the tested form may be a part): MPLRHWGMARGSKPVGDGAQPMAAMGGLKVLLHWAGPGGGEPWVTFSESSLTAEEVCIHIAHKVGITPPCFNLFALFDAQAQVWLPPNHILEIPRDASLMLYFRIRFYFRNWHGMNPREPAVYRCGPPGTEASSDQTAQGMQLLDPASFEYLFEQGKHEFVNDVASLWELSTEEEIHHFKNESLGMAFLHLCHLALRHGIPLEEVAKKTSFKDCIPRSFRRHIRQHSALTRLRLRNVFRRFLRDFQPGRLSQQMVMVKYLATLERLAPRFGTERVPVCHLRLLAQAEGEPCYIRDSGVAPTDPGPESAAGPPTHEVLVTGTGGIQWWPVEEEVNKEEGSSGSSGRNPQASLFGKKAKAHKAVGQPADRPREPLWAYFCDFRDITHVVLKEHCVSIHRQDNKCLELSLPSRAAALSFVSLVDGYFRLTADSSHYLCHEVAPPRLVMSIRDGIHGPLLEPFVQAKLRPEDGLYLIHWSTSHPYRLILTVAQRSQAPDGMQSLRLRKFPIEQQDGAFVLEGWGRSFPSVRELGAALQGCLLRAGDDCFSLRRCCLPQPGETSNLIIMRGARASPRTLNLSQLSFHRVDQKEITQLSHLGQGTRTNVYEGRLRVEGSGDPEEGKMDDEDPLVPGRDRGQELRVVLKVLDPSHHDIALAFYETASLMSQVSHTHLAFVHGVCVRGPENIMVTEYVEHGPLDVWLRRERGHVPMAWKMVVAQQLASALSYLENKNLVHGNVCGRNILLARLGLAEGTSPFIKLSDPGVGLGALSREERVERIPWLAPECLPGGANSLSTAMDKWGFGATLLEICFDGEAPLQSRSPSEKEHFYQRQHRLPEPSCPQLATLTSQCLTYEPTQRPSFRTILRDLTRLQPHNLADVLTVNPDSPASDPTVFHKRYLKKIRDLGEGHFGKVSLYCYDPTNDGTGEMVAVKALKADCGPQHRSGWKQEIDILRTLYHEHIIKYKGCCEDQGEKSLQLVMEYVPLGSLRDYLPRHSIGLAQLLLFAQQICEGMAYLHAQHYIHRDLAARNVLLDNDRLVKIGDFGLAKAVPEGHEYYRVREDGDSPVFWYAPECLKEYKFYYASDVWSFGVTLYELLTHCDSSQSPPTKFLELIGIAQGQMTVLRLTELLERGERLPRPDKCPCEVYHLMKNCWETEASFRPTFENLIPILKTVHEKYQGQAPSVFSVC

[18] = biological target: Mitogen-activated protein kinase kinase kinase 2 (Homo sapiens) (UniProt Q9Y2U5); test: Inhibition of wild-type human partial length MAP3K2 (S315 to H619 residues) expressed in mammalian expression system assessed as residual activity at 50 nM by Kinomescan method relative to control
Chain of Mitogen-activated protein kinase kinase kinase 2 (Homo sapiens) (Q9Y2U5 whole entry, the tested form may be a part): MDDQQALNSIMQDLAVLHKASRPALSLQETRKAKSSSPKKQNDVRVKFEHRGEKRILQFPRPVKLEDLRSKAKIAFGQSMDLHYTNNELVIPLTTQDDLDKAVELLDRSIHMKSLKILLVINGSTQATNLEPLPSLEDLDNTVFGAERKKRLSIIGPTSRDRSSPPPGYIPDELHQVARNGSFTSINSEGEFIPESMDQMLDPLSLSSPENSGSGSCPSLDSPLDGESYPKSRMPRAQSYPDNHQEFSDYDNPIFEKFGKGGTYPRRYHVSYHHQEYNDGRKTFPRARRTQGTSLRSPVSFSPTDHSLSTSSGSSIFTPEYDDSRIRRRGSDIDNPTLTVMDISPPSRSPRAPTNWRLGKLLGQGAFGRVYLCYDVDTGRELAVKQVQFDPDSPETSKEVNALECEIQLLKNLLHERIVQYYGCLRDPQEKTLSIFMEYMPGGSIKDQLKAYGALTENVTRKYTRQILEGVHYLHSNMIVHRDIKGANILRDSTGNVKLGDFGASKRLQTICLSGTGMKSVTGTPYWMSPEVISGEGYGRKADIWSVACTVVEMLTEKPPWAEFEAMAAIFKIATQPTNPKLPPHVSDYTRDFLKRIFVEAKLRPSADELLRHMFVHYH

[19] = biological target: Tyrosine-protein kinase ZAP-70 (Homo sapiens) (UniProt P43403); test: Inhibition of wild-type human partial length ZAP70 (D20 to G299 residues) expressed in mammalian expression system assessed as residual activity at 50 nM by Kinomescan method relative to control
[20] = biological target: BDNF/NT-3 growth factors receptor (Homo sapiens) (UniProt Q16620); test: Inhibition of wild-type human partial length TRKB (Q547 to G838 residues) expressed in mammalian expression system assessed as residual activity at 50 nM by Kinomescan method relative to control
[21] = biological target: Serine/threonine-protein kinase MARK1 (Homo sapiens) (UniProt Q9P0L2); test: Inhibition of wild-type human partial length MARK1 (Q30 to T341 residues) expressed in bacterial expression system assessed as residual activity at 50 nM by Kinomescan method relative to control
[22] = tested on: Phosphatidylinositol 4,5-bisphosphate 3-kinase catalytic subunit alpha isoform (Homo sapiens), P42336 [E545A]; test: Inhibition of human partial length PIK3CA E545A mutant (R108 to N1068 residues) expressed in mammalian expression system assessed as residual activity at 50 nM by Kinomescan method relative to control
Chain of Phosphatidylinositol 4,5-bisphosphate 3-kinase catalytic subunit alpha isoform (Homo sapiens), P42336 [E545A] (P42336 whole entry E545A, the tested form may be a part, canonical isoform): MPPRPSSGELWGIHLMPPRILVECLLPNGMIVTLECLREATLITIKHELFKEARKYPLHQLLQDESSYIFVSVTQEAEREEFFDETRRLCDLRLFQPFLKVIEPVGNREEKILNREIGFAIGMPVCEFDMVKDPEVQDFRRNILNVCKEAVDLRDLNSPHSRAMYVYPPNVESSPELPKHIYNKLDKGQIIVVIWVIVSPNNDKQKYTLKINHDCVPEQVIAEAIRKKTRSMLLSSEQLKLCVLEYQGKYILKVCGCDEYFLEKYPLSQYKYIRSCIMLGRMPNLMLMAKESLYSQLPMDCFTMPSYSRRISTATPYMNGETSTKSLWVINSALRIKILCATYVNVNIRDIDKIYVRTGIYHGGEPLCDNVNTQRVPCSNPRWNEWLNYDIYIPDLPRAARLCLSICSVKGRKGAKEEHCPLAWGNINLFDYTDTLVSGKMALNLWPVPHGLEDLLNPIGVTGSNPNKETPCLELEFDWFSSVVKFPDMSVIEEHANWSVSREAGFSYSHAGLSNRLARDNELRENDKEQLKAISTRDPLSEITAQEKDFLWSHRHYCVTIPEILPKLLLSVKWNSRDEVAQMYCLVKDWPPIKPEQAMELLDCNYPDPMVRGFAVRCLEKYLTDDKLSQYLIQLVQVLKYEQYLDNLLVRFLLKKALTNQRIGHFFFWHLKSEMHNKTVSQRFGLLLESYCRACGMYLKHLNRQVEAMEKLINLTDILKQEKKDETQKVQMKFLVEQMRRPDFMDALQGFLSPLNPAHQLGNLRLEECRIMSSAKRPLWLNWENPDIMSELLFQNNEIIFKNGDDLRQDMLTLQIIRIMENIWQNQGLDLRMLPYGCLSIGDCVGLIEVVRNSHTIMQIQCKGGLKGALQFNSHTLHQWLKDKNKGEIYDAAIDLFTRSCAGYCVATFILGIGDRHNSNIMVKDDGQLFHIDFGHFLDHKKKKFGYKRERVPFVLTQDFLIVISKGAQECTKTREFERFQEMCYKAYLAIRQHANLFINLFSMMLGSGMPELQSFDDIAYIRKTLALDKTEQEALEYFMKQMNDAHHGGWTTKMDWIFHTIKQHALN

[23] = biological target: Membrane-associated tyrosine- and threonine-specific cdc2-inhibitory kinase (Homo sapiens) (UniProt Q99640); test: Inhibition of wild-type human partial length MYT1 (A88 to G366 residues) expressed in bacterial expression system assessed as residual activity at 50 nM by Kinomescan method relative to control
[24] = biological target: Serine/threonine-protein kinase Nek5 (Homo sapiens) (UniProt Q6P3R8); test: Inhibition of wild-type human partial length NEK5 (M1 to M279 residues) expressed in bacterial expression system assessed as residual activity at 50 nM by Kinomescan method relative to control
[25] = biological target: Protein kinase C eta type (Homo sapiens) (UniProt P24723); test: Inhibition of wild-type human partial length PKCH (S324 to P683 residues) expressed in bacterial expression system assessed as residual activity at 50 nM by Kinomescan method relative to control

| Compound | Activity [1] [%] | Activity [2] [%] | Activity [3] [%] | Activity [4] [%] | Activity [5] [%] | Activity [6] [%] | Activity [7] [%] | Activity [8] [%] | Activity [9] [%] | Activity [10] [%] | Activity [11] [%] | Activity [12] [%] | Activity [13] [%] | Activity [14] [%] | Activity [15] [%] | Activity [16] [%] | IC50 [17] [nM] | Activity [18] [%] | Activity [19] [%] | Activity [20] [%] | also measured |
| --- | --- | --- | --- | --- | --- | --- | --- | --- | --- | --- | --- | --- | --- | --- | --- | --- | --- | --- | --- | --- | --- |
| COc1ccc(-c2cc3c(N[C@@H]4CC[C@](C)(N)C4(C)C)c(C(N)=O)cnn3c2)cn1 | 98 | 98 | 96 | 100 | 96 | 100 | 100 | 95 | 100 | 100 | 94 | 30 | 96 | 100 | 100 | 88 | 25 | 46 | 92 | 100 | Activity [21]: 91%; Activity [22]: 100%; Activity [23]: 100%; Activity [24]: 100%; Activity [25]: 70% |
| CC1(C)[C@H](Nc2c(C(N)=O)cnn3cc(-c4ccccc4)cc23)CC[C@]1(C)N | 100 | 96 | 80 | 100 | 96 | 87 | 54 | 100 | 100 | 92 | 100 | 9.5 | 90 | 100 | 100 | 100 | 7.5 | 30 | 79 | 80 | Activity [21]: 99%; Activity [22]: 90%; Activity [23]: 79%; Activity [24]: 100%; Activity [25]: 49% |
